Test results as given in patent US20250034139A1, “AMINE COMPOUNDS HAVING ANTI-INFLAMMATORY, ANTIFUNGAL, ANTIPARASITIC, AND ANTICANCER ACTIVITY” (PHARMA CINQ, LLC, priority 2013, published 2025).

Tests used:
[1] = system: Vit-D3 activated THP-1 cells; assay: Example B: viable cell count, AC vs chloroquine, +/- LPS; format: cell-based, Human; conditions: LPS-stimulated and basal THP-1 cells, 5 hours
Protocol: • 1. Vit-D3 activated THP-1 cells (0.5×10^6 cells in 2 ml) were transferred to the wells of a 24-well dish • 2. Compound AC was added at a concentration of 0.5 μM, 1.0 μM or 5.0 μM • 3. […] LPS from E. coli 0111:B4 (1 ng/ml final concentration) was added to some wells • 5. After 5 hours viable cell count, Acridine Orange (A.O.) uptake and JC-1 mitochondrial loading were determined by fluorescence-activated cell sorting (FACS)
THP-1 cells (p39) treated with 0.1 μM vit-D3 (100 μM) in DMSO] for 3 days were counted, spun down, resuspended in serum-free RPMI (Lonza 12-115F) and transferred to the wells of two 24-well dishes (0.5×10^6 cells in 2 ml). […] Crude-LPS from E. coli 0111:B4 was added to some wells (1 ng/ml final conc) and the plates placed in a 37 C incubator. 1 μl of Baf A1 (50 nM final conc) was added to one well (no LPS) at T=4 hours to serve as a compensation control for Acridine Orange loading. After 5 hours, 500 μl aliquots of cells were transferred to FACS tubes and viable cell counts, A.O. loading and JC-1 accumulation determined by FACS.
The tubes were washed twice in DPBS, resuspended in 500 μl DPBS and acquired on the FACSCalibur.

[2] = system: TPA induced chronic skin inflammation; assay: Example E: TPA induced chronic skin inflammation mouse model, ear thickness; format: in vivo
Description: Objective: To evaluate the anti-inflammatory properties of compounds of the invention in a 12-O-tetradecanoylphorbol-13-acetate (TPA) induced chronic skin inflammation mouse model.
Topically applied phorbol esters such as TPA induce skin inflammation involving edema, macrophage and T cell infiltration and epidermal hyperplasia (Alford et al., 1992), and this system has been used as an animal model for dermatitis, mimicking aspects of human inflammatory skin disorders. TPA is also known as a tumor promoter, so that agents which inhibit hyperproliferative or angiogenic actions of TPA may inhibit tumor promotion.
Drug formulations: Compound AC was dissolved in isopropyl myristate:propylene glycol (1:1)+0.9% DMSO at the indicated concentrations. TPA was dissolved in acetone:water (99:1). Dexamethasone (0.06%) was dissolved in normal saline.
Mice: HSD-ICR(CD-1R) female mice at 8-10 weeks of age were used in this experiment.
Experimental Design: Mice were placed into six groups of 10 mice each. 20 μL of 0.01% TPA was administered to each ear on days 0, 2, 4, 7, 9, 11, 13, 15, 18, 20, and 22. 20 μL of AC at various concentrations or 20 μL of dexamethasone solution was applied to the ears daily beginning on day 7, after inflammatory changes in ear thickness were established. Ear thickness was measured with calipers every three days.

PC-3 cells = assay: Example P: PC-3 human hormone-independent prostate cancer xenografts in nude mice; format: in vivo
Protocol: Standard models for prostate cancer use subcutaneous xenografts of human prostate cancer cell line. Local measurable tumors are produced at the site of injection of the cells, and they metastasize to critical tissues such as the bones, lungs and liver. Mortality in this model is due to metastases impairing tissue function. Compounds of the invention were assessed for inhibition of tumor growth and reduction or delay of mortality in the PC-3 prostate cancer model, which mimics an advanced, androgen-independent stage of prostate cancer.
10 female nude mice (female Hsd:athymic nude-Foxn1^nu) received PC-3 cells (5×10^6 per mouse in 0.1 mL PBS) by subcutaneous injection into the right hind flank. […] Mice received AC or vehicle (saline) via intraperitoneal (i.p.) injection once daily until day 79. • 1. […] Compound AC: 120 μmol/kg/day.
Tumors were measured with calipers twice per week, and body weights and mortality were also monitored.

[3] = AC 120 μmol/kg/day i.p. once daily, group of 5

## CCCCCCOc1cccc(CNc2ccnc3ccccc23)c1 [Compound AC, N-[3-(Hexyloxy)benzyl]quinolin-4-amine]
[1]
  potency of AC relative to chloroquine for inactivating macrophages (THP-1 cells): approximately 100 fold
[2]; day 22, 0.0125 mg/ear daily topical from day 7, TPA-treated mice
  Ear thickness (mm): 0.362 ± 0.0394 mm
[2]; day 22, 0.025 mg/ear daily topical from day 7, TPA-treated mice
  Ear thickness (mm): 0.390 ± 0.0319 mm
[2]; day 22, 0.05 mg/ear daily topical from day 7, TPA-treated mice
  Ear thickness (mm): 0.391 ± 0.0334 mm
[2]; day 22, 0.075 mg/ear daily topical from day 7, TPA-treated mice
  Ear thickness (mm): 0.395 ± 0.0438 mm
[2]; topical AC
  Histology of TPA-treated ears, in words: both TPA-induced edema and epidermal hyperplasia were reduced by AC, as was angiogenesis
PC-3 cells; AC 120 μmol/kg/day i.p.
  mean body weight at end of study: 28.9 ± 1.3 g
  mice regressed more than 50% from the initial tumor size: one
  mice with no detectable tumors at end of study (complete regressions): two
PC-3 cells; [3]
  day of death of the one mouse that died: 65 days
  number of mice surviving until the study was terminated on day 79: 4
PC-3 cells; day 77, AC 120 μmol/kg/day i.p.
  tumor size, average % of initial size: 949%
PC-3 cells; pretreatment
  initial group body weight: 26.8 ± 0.5 g
